# Tests used:
# [1] = system: SQLE mRNA expression in HaCaT keratinocyte cells; assay: Expression of cholesterol synthesis gene SQLE (QRT-PCR); assay type: cell-based; settings: HaCaT keratinocytes, 48 hours
# Protocol: (§1) This example illustrates the expressional changes in keratinocyte cholesterol metabolism pathway components (upon treatment with HA−ATRA (prepared as described in examples 5, 9), unbound ATRA and HA (HA+ATRA), hyaluronan (HA), untreated control (CTRL), retinoic isomers (13-cis-RET) and 9 cis (9-cis-RET). The HaCaT keratinocyte cells were individually treated with the compounds described below for 48 hours and sampled in the indicated times. The mRNA expression of HMGCS1, SQLE and DHRS3 was analyzed with quantitative real-time PCR (QRT-PCR) using a StepOnePlus (ThermoFisher, Waltham, Mass., USA). Briefly, 500 ng of total RNA was transcribed to cDNA (High-Capacity cDNA Reverse Transcription Kit, ThermoFisher, Waltham, Mass., USA). Approximately 5 ng of cDNA was used for QRT-PCR reaction in 10 μl volume. The TaqMan assays (all from ThermoFisher, Waltham, Mass., USA) used were: HMGCS1 (Hs00940429_m1), SQLE (Hs01123768_m1), DHRS3 (Hs01044021_m1) and RPL13A (Hs04194366_g1). Duplicate reaction tubes were set up for each sample. All expression values for HMGCS1, SQLE and DHRS3 were related to the amount of the housekeeping gene RPL13A to correct for variations in RNA levels and efficiency in cDNA synthesis. Regarding the analyzed enzyme involved in cholesterol synthesis, only treatment with microparticles of HA−ATRA increased the expression of HMGCS1 and SQLE, all samples containing retinoids increased expression of positive control DHRS3 (FIG. 10). However, microparticles HA−ATRA can upregulate cholesterol synthesis gene HMGCS1 like when the molarity of the retinoic acid bound to HA is the same in both treatments, this is shown in FIG. 11.
# [2] = system: HMGCS1 mRNA expression in HaCaT keratinocyte cells; assay: Expression of cholesterol synthesis gene HMGCS1 (QRT-PCR); assay type: cell-based; settings: HaCaT keratinocytes, 48 hours
# Protocol: as §1
# [3] = Thermogravimetric analysis (TGA), thermal decomposition; assay type: physicochemical
# Protocol: In this disclosure, it is further reported that the amount of active ATRA is conserved after four weeks of storage at 40° C., in the absence of any further toxic antioxidant, which is an advantage to the previously reported art such as US 20190015366 A1 and WO2015092602A1, that require the presence of the toxic benzoyl peroxide, which have been reported as an inductor of photo-carcinogenesis in hairless mice after solar radiation. Similar art was reported in US20100166852A1. In the present embodiments, the microparticles made of HA−ATRA were stored for prolonged times in the presence of air the microparticles are stable, while the obtained powders degraded faster (FIGS. 2 and 4). […] In this disclosure, the thermal decomposition of the HA−ATRA microparticles was compared with the native polysaccharide and pure retinoic acid using thermogravimetric analysis (TGA) according to de Mendonça CMS, de Barros Lima IP, Aragão CFS, Gomes APB in Thermal compatibility between hydroquinone and retinoic acid in pharmaceutical formulations. Journal of Thermal Analysis and calorimetry 2014; 115:2277-85.
# In brief, the TGA (Thermogravimetric analyses) was performed on the microparticles on a […]. About 2 mg of powder was accurately weighed samples were loaded into aluminum pans and analyzed. […]
"temperature range of decomposition (three stages, TG curve) [3]",Structure (SMILES),expression of SQLE [1],expression of HMGCS1 [2]
,CC1=C(/C=C/C(C)=C/C=C/C(C)=C\C(=O)O)C(C)(C)CCC1 [13-cis retinoic acid],neither unbound 9-cis retinoic nor 13-cis retinoic acid were able to upregulate,neither unbound 9-cis retinoic nor 13-cis retinoic acid were able to upregulate
185−609 °C,"CC(C=CC1=C(C)CCCC1(C)C)=CC=CC(C)=CC(=O)O [ATRA, 3,7-dimethyl-9-(2,6,6-trimethyl-1-cyclohexene-1-yl)-2,4,6,8-nonatetraenoic acid]",did not induce,did not induce
,"CC1=C(/C=C/C(C)=C\C=C\C(C)=C\C(=O)O)C(C)(C)CCC1 [9-cis retinoic, 9-cis retinoic acid]",neither unbound 9-cis retinoic nor 13-cis retinoic acid were able to upregulate,neither unbound 9-cis retinoic nor 13-cis retinoic acid were able to upregulate

# Reference: patent US20220249352A1, “MICROPARTICLES BASED ON ESTER DERIVATIVES OF HYALURONAN, METHOD OF PRODUCTION, COMPOSITION COMPRISING THEREOF AND USE THEREOF” (CONTIPRO A.S., priority 2019, published 2022)
